Data reported in patent US20150335657A1, “Methods for Modulating Sirtuin Enzymes” (The Trustees of Princeton University, priority 2014, published 2015).

Key:
[1] = test system: human cytomegalovirus (HCMV) AD169 strain; test: Antiviral activity against HCMV in MRC5 fibroblasts (virus yield, fluorescent focus assay); assay type: cell-based; settings: Human betaherpesvirus 5, HCMV AD169, 1 infectious unit/cell, treated 2 h after infection, virus in medium at 96 h
[2] = target: T1, SIRT6 (Homo sapiens, UniProt Q8N6T7); test: Sirtuin deacetylase enzyme activity assay (Cayman Chemical), compound screen; assay type: biochemical; settings: compound at 50 μM; Z-score of change in fluorescent signal; + increase, − decrease
T1 construct: purchased Cayman Chemical
T1 sequence (Q8N6T7 whole entry): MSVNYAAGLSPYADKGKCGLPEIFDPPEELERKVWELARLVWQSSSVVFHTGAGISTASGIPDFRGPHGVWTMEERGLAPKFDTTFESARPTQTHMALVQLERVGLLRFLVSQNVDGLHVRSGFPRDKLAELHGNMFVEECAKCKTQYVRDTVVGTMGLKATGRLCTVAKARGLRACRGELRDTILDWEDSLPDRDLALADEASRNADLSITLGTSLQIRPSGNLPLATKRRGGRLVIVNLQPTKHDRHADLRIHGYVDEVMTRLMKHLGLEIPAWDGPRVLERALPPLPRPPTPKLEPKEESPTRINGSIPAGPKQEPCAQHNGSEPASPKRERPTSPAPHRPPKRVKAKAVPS
Excerpt: (§1) Sirtuins have been identified as innate viral restriction factors and it has been previously shown that drugs that modulate the activity of these enzymes block the production of multiple viruses in culture (see, e.g., WO 2012/106509). Sirtuins are NAD-dependent enzymes that regulate the activity of target proteins by post-translational modifications and thereby control key cellular events (see, e.g., Haigis and Sinclair (2010) Ann Rev Pathol Mech Dis 5:253-95). SIRT1, SIRT2, SIRT3 and SIRT6 have shown a detectable deacetylase activity in well-established biochemical assays that utilize recombinant SIRT1, SIRT2, SIRT3, and SIRT6 enzymes and fluorophore-conjugated acetyl-peptides. As described in the Examples below, the deacetylase activity of these sirtuins were used as a surrogate to identify compounds having broad-range antiviral activity.
(§2) A publically disclosed, small molecule library consisting of approximately 13,000 compounds was screened using a commercially available (Cayman Chemical) enzyme activity assay. Deacetylase activity of sirtuins SIRT1, SIRT2, SIRT3, and SIRT6 was used as a surrogate to identify compounds with the potential for having broad-range antiviral activity. The compounds were tested at a single concentration (50 μM) in microtiter plates and their activity against the four sirtuins was recorded as a change in fluorescent signal intensity. […] Activation of sirtuin activity generated positive Z-scores and inhibition of sirtuin activity produced negative Z-scores.

[3] = target: T2, SIRT1 (Homo sapiens, UniProt Q96EB6); test: as above; assay type: biochemical; settings: compound at 50 μM; Z-score of change in fluorescent signal; + increase, − decrease
T2 construct: purchased Cayman Chemical
T2 sequence (Q96EB6 1-747): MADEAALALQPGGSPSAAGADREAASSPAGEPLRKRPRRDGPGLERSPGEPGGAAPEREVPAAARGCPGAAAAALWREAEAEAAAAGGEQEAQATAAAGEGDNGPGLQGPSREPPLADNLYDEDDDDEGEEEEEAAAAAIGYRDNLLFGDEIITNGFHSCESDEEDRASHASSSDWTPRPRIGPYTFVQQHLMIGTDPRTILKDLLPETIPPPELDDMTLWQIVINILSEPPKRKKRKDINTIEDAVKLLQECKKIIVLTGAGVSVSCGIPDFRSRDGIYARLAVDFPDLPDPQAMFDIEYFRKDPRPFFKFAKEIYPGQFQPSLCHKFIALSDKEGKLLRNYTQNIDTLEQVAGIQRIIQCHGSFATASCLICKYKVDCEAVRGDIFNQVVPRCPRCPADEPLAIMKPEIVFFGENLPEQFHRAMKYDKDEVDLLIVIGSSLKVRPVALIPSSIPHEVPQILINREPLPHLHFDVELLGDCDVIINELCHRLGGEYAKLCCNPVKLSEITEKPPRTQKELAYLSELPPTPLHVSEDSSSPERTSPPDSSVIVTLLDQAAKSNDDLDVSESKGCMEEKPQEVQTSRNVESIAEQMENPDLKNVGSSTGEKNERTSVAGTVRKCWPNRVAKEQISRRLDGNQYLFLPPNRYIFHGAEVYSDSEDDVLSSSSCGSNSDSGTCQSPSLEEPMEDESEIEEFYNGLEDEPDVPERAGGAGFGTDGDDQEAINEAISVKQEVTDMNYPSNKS
Excerpt: as §1, §2

[4] = target: T3, SIRT3 (Homo sapiens, UniProt Q9NTG7); test: as above; assay type: biochemical; settings: compound at 50 μM; Z-score of change in fluorescent signal; + increase, − decrease
T3 construct: purchased Cayman Chemical
T3 sequence (Q9NTG7 1-399): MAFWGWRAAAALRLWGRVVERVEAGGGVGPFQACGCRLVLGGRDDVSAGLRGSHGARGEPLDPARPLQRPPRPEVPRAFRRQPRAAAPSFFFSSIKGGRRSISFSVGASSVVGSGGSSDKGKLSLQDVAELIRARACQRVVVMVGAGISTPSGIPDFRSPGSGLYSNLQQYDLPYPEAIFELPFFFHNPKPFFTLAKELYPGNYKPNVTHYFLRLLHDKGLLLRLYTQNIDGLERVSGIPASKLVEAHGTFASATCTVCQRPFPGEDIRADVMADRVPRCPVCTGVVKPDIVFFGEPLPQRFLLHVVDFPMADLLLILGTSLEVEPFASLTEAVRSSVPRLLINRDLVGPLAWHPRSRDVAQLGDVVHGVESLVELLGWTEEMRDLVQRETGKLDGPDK
Excerpt: as §1, §2

[5] = target: T4, SIRT2 (Homo sapiens, UniProt Q8IXJ6); test: as above; assay type: biochemical; settings: compound at 50 μM; Z-score of change in fluorescent signal; + increase, − decrease
T4 construct: purchased Cayman Chemical
T4 sequence (Q8IXJ6 1-389): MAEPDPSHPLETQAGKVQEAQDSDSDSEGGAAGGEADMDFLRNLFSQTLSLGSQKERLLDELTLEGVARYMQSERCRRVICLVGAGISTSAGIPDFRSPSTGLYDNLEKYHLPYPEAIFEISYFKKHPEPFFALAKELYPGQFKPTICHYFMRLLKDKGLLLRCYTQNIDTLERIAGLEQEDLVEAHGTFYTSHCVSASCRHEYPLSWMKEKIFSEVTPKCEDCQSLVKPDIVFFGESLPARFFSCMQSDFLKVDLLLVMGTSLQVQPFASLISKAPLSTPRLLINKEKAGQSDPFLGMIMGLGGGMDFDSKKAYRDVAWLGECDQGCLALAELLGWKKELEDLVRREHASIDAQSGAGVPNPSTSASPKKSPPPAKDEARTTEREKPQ
Excerpt: as §1, §2

[6] = Tetrazolium-based cell viability assay (cytotoxicity); settings: human

CC(c1ccc(F)cc1)C(O)Cn1cc(-c2cc(Cl)cnc2N)nn1 (stereo not drawn)
IC50 [1]: 15.1 µM | IC90 [1]: 35.6 µM | SIRT6 (change in sirtuin deacetylase activity, Z-score class) [2]: ++ (2 ≦ Z-score < 3 = ++) | SIRT1 (change in sirtuin deacetylase activity, Z-score class) [3]: +++ (Z-score ≧ 3 = +++) | SIRT3 (change in sirtuin deacetylase activity, Z-score class) [4]: na (−2 ≦ Z-score < 2 = no activity (na)) | SIRT2 (change in sirtuin deacetylase activity, Z-score class) [5]: na (−2 ≦ Z-score < 2 = no activity (na)) | CC50 at 96 h [6]: > 50 µM

Cc1ccccc1C(C)C(CO)NC(=O)c1cn(C)cn1 (stereo not drawn)
IC50 [1]: 15.8 µM | IC90 [1]: 41.9 µM | SIRT6 (change in sirtuin deacetylase activity, Z-score class) [2]: −− (−3 < Z-score ≦ −2 = −−) | SIRT1 (change in sirtuin deacetylase activity, Z-score class) [3]: −−− (Z-score ≦ −3 = −−−) | SIRT3 (change in sirtuin deacetylase activity, Z-score class) [4]: na (−2 ≦ Z-score < 2 = no activity (na)) | SIRT2 (change in sirtuin deacetylase activity, Z-score class) [5]: −−− (Z-score ≦ −3 = −−−) | CC50 at 96 h [6]: > 50 µM

CC(CCNc1cccnc1)c1c[nH]c2ccccc12 (stereo not drawn)
IC50 [1]: 15.8 µM | IC90 [1]: 43.1 µM | SIRT6 (change in sirtuin deacetylase activity, Z-score class) [2]: na (−2 ≦ Z-score < 2 = no activity (na)) | SIRT1 (change in sirtuin deacetylase activity, Z-score class) [3]: na (−2 ≦ Z-score < 2 = no activity (na)) | SIRT3 (change in sirtuin deacetylase activity, Z-score class) [4]: na (−2 ≦ Z-score < 2 = no activity (na)) | SIRT2 (change in sirtuin deacetylase activity, Z-score class) [5]: +++ (Z-score ≧ 3 = +++) | CC50 at 96 h [6]: > 50 µM

COc1ccc2[nH]cc(C(C)CCNc3cccnc3)c2c1 (stereo not drawn)
IC50 [1]: 17.4 µM | IC90 [1]: 46.5 µM | SIRT6 (change in sirtuin deacetylase activity, Z-score class) [2]: na (−2 ≦ Z-score < 2 = no activity (na)) | SIRT1 (change in sirtuin deacetylase activity, Z-score class) [3]: na (−2 ≦ Z-score < 2 = no activity (na)) | SIRT3 (change in sirtuin deacetylase activity, Z-score class) [4]: na (−2 ≦ Z-score < 2 = no activity (na)) | SIRT2 (change in sirtuin deacetylase activity, Z-score class) [5]: +++ (Z-score ≧ 3 = +++) | CC50 at 96 h [6]: > 50 µM

CCN1CC(C(C)c2ccc(C)nc2)Oc2ccc(C(F)(F)F)cc2C1=O (stereo not drawn)
IC50 [1]: 18.4 µM | IC90 [1]: 42.3 µM | SIRT6 (change in sirtuin deacetylase activity, Z-score class) [2]: na (−2 ≦ Z-score < 2 = no activity (na)) | SIRT1 (change in sirtuin deacetylase activity, Z-score class) [3]: na (−2 ≦ Z-score < 2 = no activity (na)) | SIRT3 (change in sirtuin deacetylase activity, Z-score class) [4]: na (−2 ≦ Z-score < 2 = no activity (na)) | SIRT2 (change in sirtuin deacetylase activity, Z-score class) [5]: +++ (Z-score ≧ 3 = +++) | CC50 at 96 h [6]: > 50 µM

CC(c1ccccc1F)C(O)CNc1ccc(O)nc1 (stereo not drawn)
IC50 [1]: 19.4 µM | IC90 [1]: 44 µM | SIRT6 (change in sirtuin deacetylase activity, Z-score class) [2]: +++ (Z-score ≧ 3 = +++) | SIRT1 (change in sirtuin deacetylase activity, Z-score class) [3]: na (−2 ≦ Z-score < 2 = no activity (na)) | SIRT3 (change in sirtuin deacetylase activity, Z-score class) [4]: +++ (Z-score ≧ 3 = +++) | SIRT2 (change in sirtuin deacetylase activity, Z-score class) [5]: na (−2 ≦ Z-score < 2 = no activity (na)) | CC50 at 96 h [6]: > 50 µM

CC(c1ccnn1C)C(CN1CCN(C)CC1)Oc1ccc(C#N)cn1 (stereo not drawn)
IC50 [1]: 21.1 µM | IC90 [1]: 42.4 µM | SIRT6 (change in sirtuin deacetylase activity, Z-score class) [2]: +++ (Z-score ≧ 3 = +++) | SIRT1 (change in sirtuin deacetylase activity, Z-score class) [3]: −− (−3 < Z-score ≦ −2 = −−) | SIRT3 (change in sirtuin deacetylase activity, Z-score class) [4]: na (−2 ≦ Z-score < 2 = no activity (na)) | SIRT2 (change in sirtuin deacetylase activity, Z-score class) [5]: na (−2 ≦ Z-score < 2 = no activity (na)) | CC50 at 96 h [6]: > 50 µM

COc1ccccc1C1C(=O)N(C(C)C)CC1O (stereo not drawn)
IC50 [1]: 23.9 µM | IC90 [1]: 47.2 µM | SIRT6 (change in sirtuin deacetylase activity, Z-score class) [2]: na (−2 ≦ Z-score < 2 = no activity (na)) | SIRT1 (change in sirtuin deacetylase activity, Z-score class) [3]: na (−2 ≦ Z-score < 2 = no activity (na)) | SIRT3 (change in sirtuin deacetylase activity, Z-score class) [4]: na (−2 ≦ Z-score < 2 = no activity (na)) | SIRT2 (change in sirtuin deacetylase activity, Z-score class) [5]: +++ (Z-score ≧ 3 = +++) | CC50 at 96 h [6]: > 50 µM

CC(C)c1cc(N)n(C(C(=O)O)C(C)c2ccccc2Cl)n1 (stereo not drawn)
IC50 [1]: 25.5 µM | IC90 [1]: 57.9 µM | SIRT6 (change in sirtuin deacetylase activity, Z-score class) [2]: na (−2 ≦ Z-score < 2 = no activity (na)) | SIRT1 (change in sirtuin deacetylase activity, Z-score class) [3]: −− (−3 < Z-score ≦ −2 = −−) | SIRT3 (change in sirtuin deacetylase activity, Z-score class) [4]: na (−2 ≦ Z-score < 2 = no activity (na)) | SIRT2 (change in sirtuin deacetylase activity, Z-score class) [5]: −− (−3 < Z-score ≦ −2 = −−) | CC50 at 96 h [6]: > 50 µM

COc1cccc(C(C)C(O)Cn2cc(-c3cc(Cl)cnc3N)nn2)c1 (stereo not drawn)
IC50 [1]: 26.2 µM | IC90 [1]: 44.3 µM | SIRT6 (change in sirtuin deacetylase activity, Z-score class) [2]: +++ (Z-score ≧ 3 = +++) | SIRT1 (change in sirtuin deacetylase activity, Z-score class) [3]: +++ (Z-score ≧ 3 = +++) | SIRT3 (change in sirtuin deacetylase activity, Z-score class) [4]: na (−2 ≦ Z-score < 2 = no activity (na)) | SIRT2 (change in sirtuin deacetylase activity, Z-score class) [5]: na (−2 ≦ Z-score < 2 = no activity (na)) | CC50 at 96 h [6]: > 50 µM

COc1ccc(C(C)C(CN2CCc3ccccc3C2)n2nc(-c3cccnc3)cc2N)cc1 (stereo not drawn)
IC50 [1]: 27.7 µM | IC90 [1]: 55.7 µM | SIRT6 (change in sirtuin deacetylase activity, Z-score class) [2]: na (−2 ≦ Z-score < 2 = no activity (na)) | SIRT1 (change in sirtuin deacetylase activity, Z-score class) [3]: −−− (Z-score ≦ −3 = −−−) | SIRT3 (change in sirtuin deacetylase activity, Z-score class) [4]: na (−2 ≦ Z-score < 2 = no activity (na)) | SIRT2 (change in sirtuin deacetylase activity, Z-score class) [5]: −− (−3 < Z-score ≦ −2 = −−) | CC50 at 96 h [6]: > 50 µM

CC(c1ccncc1)c1cnc(N2CCc3ccccc3C2)s1 (stereo not drawn)
IC50 [1]: 28.3 µM | IC90 [1]: 41.9 µM | SIRT6 (change in sirtuin deacetylase activity, Z-score class) [2]: na (−2 ≦ Z-score < 2 = no activity (na)) | SIRT1 (change in sirtuin deacetylase activity, Z-score class) [3]: na (−2 ≦ Z-score < 2 = no activity (na)) | SIRT3 (change in sirtuin deacetylase activity, Z-score class) [4]: na (−2 ≦ Z-score < 2 = no activity (na)) | SIRT2 (change in sirtuin deacetylase activity, Z-score class) [5]: −−− (Z-score ≦ −3 = −−−) | CC50 at 96 h [6]: > 50 µM
